Consider three molecules from ChEMBL document CHEMBL5715954, “Silencing c-Myc translation as a therapeutic strategy through targeting PI3Kδ and CK1ε in hematological malignancies” (Blood, 2017).

Common to all, as to set-up: scale not given: the % may be the effect or the level left
Test [1] concerns the target Casein kinase I isoform delta (Homo sapiens) (UniProt P48730). Kind of test: Inhibition of human CK1delta assessed as enzyme activity at 1 uM using KRRRAL[pS]VASLPGL as substrate preincubated for 20 mins followed by [gamma-33P]-ATP addition and measured after 120 mins by radiometric Hot-SpotSM Kinase assay relative to control.
In test [2] the target is Dual specificity mitogen-activated protein kinase kinase 1 (Homo sapiens) (UniProt Q02750). In words: Inhibition of human MEK1 assessed as enzyme activity at 1 uM using ERK2 (K52R) as substrate preincubated for 20 mins followed by [gamma-33P]-ATP addition and measured after 120 mins by radiometric Hot-SpotSM Kinase assay relative to control.
Test [3] concerns the target Mitogen-activated protein kinase kinase kinase 20 (Homo sapiens) (UniProt Q9NYL2). In words: Inhibition of human ZAK/MLTK assessed as enzyme activity at 1 uM using myelin basic protein as substrate preincubated for 20 mins followed by [gamma-33P]-ATP addition and measured after 120 mins by radiometric Hot-SpotSM Kinase assay relative to control.
In test [4] the target is Tau-tubulin kinase 1 (Homo sapiens) (UniProt Q5TCY1). In words: Inhibition of human TTBK1 assessed as enzyme activity at 1 uM using myelin basic protein as substrate preincubated for 20 mins followed by [gamma-33P]-ATP addition and measured after 120 mins by radiometric Hot-SpotSM Kinase assay relative to control.
In test [5] the target is TRAF2 and NCK-interacting protein kinase (Homo sapiens) (UniProt Q9UKE5). Kind of test: Inhibition of human TNIK assessed as enzyme activity at 1 uM using RLGRDKYKTLRQIRQ as substrate preincubated for 20 mins followed by [gamma-33P]-ATP addition and measured after 120 mins by radiometric Hot-SpotSM Kinase assay relative to control.
Test [6] concerns the target T1, Testis-specific serine/threonine-protein kinase 3 (Homo sapiens) (UniProt Q96PN8).
T1 sequence (whole entry): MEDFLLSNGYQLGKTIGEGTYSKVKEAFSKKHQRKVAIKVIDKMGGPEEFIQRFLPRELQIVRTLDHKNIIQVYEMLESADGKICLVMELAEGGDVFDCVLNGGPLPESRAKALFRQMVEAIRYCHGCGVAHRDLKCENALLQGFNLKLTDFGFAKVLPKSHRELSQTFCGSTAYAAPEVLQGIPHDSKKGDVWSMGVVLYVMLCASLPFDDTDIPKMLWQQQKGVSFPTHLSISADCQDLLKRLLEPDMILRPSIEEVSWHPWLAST
Kind of test: Inhibition of human TSSK3 assessed as enzyme activity at 1 uM using KKKVSRSGLYRSPSMPENLNRPR as substrate preincubated for 20 mins followed by [gamma-33P]-ATP addition and measured after 120 mins by radiometric Hot-SpotSM Kinase assay relative to control.

Test [7] addresses Serine/threonine-protein kinase WNK2 (Homo sapiens) (UniProt Q9Y3S1). In words: Inhibition of human WNK2 assessed as enzyme activity at 1 uM using myelin basic protein as substrate preincubated for 20 mins followed by [gamma-33P]-ATP addition and measured after 120 mins by radiometric Hot-SpotSM Kinase assay relative to control.
Test [8] has as its target T2, Rhodopsin kinase GRK7 (Homo sapiens) (UniProt Q8WTQ7).
T2 sequence (whole entry): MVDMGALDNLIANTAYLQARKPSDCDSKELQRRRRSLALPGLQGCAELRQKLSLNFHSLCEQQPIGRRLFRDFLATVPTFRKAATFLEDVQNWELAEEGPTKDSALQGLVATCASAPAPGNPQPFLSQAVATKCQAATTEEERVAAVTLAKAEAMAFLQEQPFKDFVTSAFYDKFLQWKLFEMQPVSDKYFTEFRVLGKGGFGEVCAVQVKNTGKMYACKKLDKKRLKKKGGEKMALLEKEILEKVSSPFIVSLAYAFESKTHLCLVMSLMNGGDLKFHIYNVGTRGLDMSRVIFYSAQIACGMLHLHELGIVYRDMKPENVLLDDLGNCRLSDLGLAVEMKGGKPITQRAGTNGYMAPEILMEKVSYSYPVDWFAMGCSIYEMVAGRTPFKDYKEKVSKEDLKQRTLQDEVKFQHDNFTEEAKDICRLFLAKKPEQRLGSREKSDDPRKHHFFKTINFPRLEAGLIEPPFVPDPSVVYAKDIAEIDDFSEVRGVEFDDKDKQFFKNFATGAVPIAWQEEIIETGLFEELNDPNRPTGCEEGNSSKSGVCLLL
Kind of test: Inhibition of human GRK7 assessed as enzyme activity at 1 uM using casein as substrate preincubated for 20 mins followed by [gamma-33P]-ATP addition and measured after 120 mins by radiometric Hot-SpotSM Kinase assay relative to control.

For test [9], the target named is Platelet-derived growth factor receptor alpha (Homo sapiens) (UniProt P16234). In words: Inhibition of human PDGFRa assessed as enzyme activity at 1 uM using poly[Glu:Tyr] (4:1) as substrate preincubated for 20 mins followed by [gamma-33P]-ATP addition and measured after 120 mins by radiometric Hot-SpotSM Kinase assay relative to control.
Test [10] has as its target Angiopoietin-1 receptor (Homo sapiens) (UniProt Q02763). Kind of test: Inhibition of human TIE2 assessed as enzyme activity at 1 uM using poly[Glu:Tyr] (4:1) as substrate preincubated for 20 mins followed by [gamma-33P]-ATP addition and measured after 120 mins by radiometric Hot-SpotSM Kinase assay relative to control.
The target in test [11] is Serine/threonine-protein kinase WNK3 (Homo sapiens) (UniProt Q9BYP7). Kind of test: Inhibition of human WNK3 assessed as enzyme activity at 1 uM using myelin basic protein as substrate preincubated for 20 mins followed by [gamma-33P]-ATP addition and measured after 120 mins by radiometric Hot-SpotSM Kinase assay relative to control.
The target of test [12] is Homeodomain-interacting protein kinase 1 (Homo sapiens) (UniProt Q86Z02). In words: Inhibition of human HIPK1 assessed as enzyme activity at 1 uM using myelin basic protein as substrate preincubated for 20 mins followed by [gamma-33P]-ATP addition and measured after 120 mins by radiometric Hot-SpotSM Kinase assay relative to control.
Sequence of Homeodomain-interacting protein kinase 1 (Homo sapiens) (Q86Z02 whole entry, looked up): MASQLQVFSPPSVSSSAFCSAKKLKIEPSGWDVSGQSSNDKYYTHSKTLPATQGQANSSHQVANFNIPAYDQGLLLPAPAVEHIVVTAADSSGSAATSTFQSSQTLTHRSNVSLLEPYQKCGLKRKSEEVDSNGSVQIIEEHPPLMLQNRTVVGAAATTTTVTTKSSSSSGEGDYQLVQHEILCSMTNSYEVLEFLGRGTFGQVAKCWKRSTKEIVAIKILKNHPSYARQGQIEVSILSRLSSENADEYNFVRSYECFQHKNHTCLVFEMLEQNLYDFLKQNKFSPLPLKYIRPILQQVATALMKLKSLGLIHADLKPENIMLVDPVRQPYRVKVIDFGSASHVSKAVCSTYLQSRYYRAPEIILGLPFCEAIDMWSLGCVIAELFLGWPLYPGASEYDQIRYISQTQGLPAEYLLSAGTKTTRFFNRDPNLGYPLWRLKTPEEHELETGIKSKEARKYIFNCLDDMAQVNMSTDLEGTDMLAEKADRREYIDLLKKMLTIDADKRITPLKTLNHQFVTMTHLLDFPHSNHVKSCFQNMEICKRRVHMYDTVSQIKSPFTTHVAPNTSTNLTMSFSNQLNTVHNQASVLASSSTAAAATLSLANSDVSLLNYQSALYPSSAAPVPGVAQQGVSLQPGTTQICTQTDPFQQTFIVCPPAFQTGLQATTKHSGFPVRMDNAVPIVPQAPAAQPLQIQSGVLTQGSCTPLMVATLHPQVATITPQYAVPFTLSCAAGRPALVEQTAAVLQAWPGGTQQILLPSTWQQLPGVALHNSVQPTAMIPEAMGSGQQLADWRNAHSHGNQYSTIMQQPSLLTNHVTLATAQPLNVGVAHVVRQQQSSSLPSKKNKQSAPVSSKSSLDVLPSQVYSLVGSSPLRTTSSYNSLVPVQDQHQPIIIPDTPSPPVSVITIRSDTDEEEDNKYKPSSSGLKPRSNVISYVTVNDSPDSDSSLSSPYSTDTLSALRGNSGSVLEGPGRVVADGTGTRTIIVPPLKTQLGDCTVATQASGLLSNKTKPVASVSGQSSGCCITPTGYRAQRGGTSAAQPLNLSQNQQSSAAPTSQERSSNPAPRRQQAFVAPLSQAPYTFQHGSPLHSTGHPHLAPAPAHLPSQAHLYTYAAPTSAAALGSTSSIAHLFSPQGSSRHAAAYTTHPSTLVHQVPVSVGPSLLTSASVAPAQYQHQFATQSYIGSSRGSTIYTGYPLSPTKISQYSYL

Sequence of Dual specificity mitogen-activated protein kinase kinase 1 (Homo sapiens) (Q02750 whole entry): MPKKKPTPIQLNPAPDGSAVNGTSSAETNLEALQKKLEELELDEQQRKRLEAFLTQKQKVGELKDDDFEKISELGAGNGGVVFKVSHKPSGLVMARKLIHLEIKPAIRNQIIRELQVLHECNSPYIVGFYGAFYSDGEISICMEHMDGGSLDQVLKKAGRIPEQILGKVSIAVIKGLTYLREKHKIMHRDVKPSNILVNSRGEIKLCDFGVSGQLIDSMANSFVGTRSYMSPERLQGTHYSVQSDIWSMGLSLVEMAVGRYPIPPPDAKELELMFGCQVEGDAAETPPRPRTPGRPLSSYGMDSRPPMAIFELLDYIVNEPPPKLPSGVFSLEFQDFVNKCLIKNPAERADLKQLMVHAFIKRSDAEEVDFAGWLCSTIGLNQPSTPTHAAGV
Sequence of Angiopoietin-1 receptor (Homo sapiens) (Q02763 whole entry): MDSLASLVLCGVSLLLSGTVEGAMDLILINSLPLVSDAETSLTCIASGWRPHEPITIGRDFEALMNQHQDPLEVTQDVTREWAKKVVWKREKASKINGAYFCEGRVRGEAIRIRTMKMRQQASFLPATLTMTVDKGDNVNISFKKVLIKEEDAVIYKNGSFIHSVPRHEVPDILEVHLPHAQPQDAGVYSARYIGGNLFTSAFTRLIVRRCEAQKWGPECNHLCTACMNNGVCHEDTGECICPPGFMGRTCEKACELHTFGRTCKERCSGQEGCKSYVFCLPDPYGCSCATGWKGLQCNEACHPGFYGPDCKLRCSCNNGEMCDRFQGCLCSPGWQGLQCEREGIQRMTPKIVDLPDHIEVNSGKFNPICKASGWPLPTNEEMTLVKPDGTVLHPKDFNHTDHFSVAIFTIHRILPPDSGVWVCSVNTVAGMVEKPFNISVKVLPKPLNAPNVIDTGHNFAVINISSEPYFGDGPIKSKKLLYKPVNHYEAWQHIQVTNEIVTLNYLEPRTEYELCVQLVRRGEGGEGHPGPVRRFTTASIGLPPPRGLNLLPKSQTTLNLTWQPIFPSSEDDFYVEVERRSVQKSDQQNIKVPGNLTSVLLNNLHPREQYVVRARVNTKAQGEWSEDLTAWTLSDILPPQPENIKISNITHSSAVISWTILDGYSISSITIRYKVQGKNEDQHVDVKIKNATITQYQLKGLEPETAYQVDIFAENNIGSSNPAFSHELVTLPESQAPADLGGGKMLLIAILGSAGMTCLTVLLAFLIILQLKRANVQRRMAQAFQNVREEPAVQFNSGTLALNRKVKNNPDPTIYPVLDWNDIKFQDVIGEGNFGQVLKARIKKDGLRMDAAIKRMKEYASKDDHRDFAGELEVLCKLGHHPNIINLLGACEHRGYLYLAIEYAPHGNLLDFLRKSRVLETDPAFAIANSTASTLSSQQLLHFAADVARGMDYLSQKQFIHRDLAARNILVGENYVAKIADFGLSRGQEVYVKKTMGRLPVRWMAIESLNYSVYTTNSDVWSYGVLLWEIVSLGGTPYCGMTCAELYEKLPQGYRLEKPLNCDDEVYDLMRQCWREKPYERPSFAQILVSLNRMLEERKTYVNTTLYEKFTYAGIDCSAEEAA
Sequence of Tau-tubulin kinase 1 (Homo sapiens) (Q5TCY1 whole entry): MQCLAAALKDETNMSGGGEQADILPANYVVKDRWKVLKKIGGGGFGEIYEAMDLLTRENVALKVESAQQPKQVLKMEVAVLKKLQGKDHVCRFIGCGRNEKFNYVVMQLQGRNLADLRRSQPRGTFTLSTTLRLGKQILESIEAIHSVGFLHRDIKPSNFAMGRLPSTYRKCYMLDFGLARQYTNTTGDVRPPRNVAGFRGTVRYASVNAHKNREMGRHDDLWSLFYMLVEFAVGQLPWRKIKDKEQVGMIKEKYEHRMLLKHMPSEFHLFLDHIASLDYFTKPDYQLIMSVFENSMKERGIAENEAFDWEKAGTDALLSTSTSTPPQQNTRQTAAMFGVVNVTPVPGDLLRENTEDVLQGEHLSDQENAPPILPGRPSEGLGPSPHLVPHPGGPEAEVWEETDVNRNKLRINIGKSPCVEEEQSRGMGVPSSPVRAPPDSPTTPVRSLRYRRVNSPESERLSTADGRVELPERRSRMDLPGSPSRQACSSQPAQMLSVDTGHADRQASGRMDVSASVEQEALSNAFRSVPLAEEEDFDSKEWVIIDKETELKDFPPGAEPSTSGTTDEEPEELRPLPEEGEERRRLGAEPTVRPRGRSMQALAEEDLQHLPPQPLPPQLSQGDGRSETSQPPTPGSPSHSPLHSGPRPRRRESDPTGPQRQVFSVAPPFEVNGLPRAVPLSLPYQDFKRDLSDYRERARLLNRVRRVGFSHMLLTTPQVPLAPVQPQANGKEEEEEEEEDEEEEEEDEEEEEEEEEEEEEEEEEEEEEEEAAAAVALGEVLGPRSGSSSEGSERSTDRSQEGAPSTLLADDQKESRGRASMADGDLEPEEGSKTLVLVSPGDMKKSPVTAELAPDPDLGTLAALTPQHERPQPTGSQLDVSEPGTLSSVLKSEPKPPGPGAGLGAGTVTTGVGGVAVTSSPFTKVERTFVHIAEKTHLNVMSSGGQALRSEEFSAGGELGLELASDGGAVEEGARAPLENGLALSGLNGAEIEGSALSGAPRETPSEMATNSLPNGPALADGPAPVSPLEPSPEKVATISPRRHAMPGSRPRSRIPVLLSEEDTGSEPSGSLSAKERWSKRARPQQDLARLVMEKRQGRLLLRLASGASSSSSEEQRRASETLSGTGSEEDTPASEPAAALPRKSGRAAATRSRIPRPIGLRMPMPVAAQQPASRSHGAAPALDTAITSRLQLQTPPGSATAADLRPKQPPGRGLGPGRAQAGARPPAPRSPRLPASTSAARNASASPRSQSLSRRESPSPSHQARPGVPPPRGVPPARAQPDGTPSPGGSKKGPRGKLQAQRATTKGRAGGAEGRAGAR
Sequence of Mitogen-activated protein kinase kinase kinase 20 (Homo sapiens) (Q9NYL2 2-800 limits assumed): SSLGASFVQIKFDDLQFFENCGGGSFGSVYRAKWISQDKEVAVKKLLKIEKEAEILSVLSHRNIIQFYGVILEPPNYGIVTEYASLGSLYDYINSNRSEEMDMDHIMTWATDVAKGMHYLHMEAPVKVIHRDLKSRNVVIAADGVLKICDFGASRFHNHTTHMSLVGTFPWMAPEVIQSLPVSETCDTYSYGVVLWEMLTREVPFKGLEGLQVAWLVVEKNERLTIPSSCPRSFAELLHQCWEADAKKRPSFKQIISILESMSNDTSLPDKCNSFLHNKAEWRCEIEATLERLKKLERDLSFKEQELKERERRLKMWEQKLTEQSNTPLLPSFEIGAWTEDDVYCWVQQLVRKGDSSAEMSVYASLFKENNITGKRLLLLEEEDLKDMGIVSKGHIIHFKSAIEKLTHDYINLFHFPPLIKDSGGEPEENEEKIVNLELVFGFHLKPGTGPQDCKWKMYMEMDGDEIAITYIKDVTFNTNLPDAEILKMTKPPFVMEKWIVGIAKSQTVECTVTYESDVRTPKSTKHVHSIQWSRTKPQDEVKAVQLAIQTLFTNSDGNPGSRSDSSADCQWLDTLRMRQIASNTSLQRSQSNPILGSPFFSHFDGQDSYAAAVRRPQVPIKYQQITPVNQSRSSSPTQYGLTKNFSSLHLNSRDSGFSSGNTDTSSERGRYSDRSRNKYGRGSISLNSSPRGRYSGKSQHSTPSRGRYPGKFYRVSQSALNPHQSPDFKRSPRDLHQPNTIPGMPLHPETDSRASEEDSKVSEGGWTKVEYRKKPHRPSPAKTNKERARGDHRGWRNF

For the molecule `C[C@H](Nc1ncnc2nc[nH]c12)c1cc2cccc(Cl)c2c(=O)n1-c1ccccc1`, the Activity came to 97% in test [1]; 97.2% in test [2]; 88.7% in test [3]; 97.8% in test [4]; 99.7% in [5]; 109% in [6]. Besides, the Activity in test [7] was 90.5%; in [8], 101%; in test [9], 90.1%; in test [10] it was 97.3%; in test [11] it was 86.8%; in [12], 103%.

`CC[C@H](Nc1ncnc2[nH]cnc12)c1nc2cccc(F)c2c(=O)n1-c1ccccc1`: the Activity in test [1] came to 96.5%; in test [2] it was 100%; in [3], 96.5%; in [4] it was 95.8%; in test [5], 94.5%; in [6], 102%. Besides, the Activity in test [7] was found to be 92.3%; in test [8], 95%; in test [9], 93.8%; in [10], 97.9%; in test [11], 86.4%; in test [12], 102%.

For the molecule `CC(C)Oc1ccc(-c2nn([C@@H](C)c3oc4ccc(F)cc4c(=O)c3-c3cccc(F)c3)c3ncnc(N)c23)cc1F` [UMBRALISIB], the Activity in test [1] stood at 97.7%; in test [2] it was 94.4%; in test [3], 92.3%; in test [4] it was 103%; in [5], 97.7%; in test [6], 107%. Further, the Activity in [7] came to 82.2%; in test [8] it was 100%; in test [9] it was 100%; in [10], 92%; in test [11], 82.7%; in [12], 101%.
